melting point [°C]	Structure (SMILES)
187 to 189	Cc1nc(CS(=O)(=O)c2cccs2)sc1-c1ccnc(Nc2ccc(N3CCOCC3)cc2)n1
137 to 140	COC(=O)C(=C(/C)c1cc(OC)cc(OC)c1)/C(=C\c1cc(OC)cc(OC)c1)C(=O)O
247 to 249	CC(C)(C)C(NC(=O)c1ccc(Cl)cc1)Nc1c(Nc2ccc(F)cc2)c(=O)c1=O (centres undefined)
> 300	COc1cc(OC)cc(C(=O)NC(=O)Nc2ccc3c(c2)NC(=O)/C3=C\c2[nH]c(C)c(C(=O)O)c2C)c1
181	FC(F)(F)COc1ccc(-c2cc(C(F)(F)F)n3ncc(-c4cccnc4)c3n2)cc1C(F)(F)F
> 230	CSc1nn2c(N)cc(C)nc2c1S(=O)(=O)c1cccs1
174 to 176	COc1ccc(-c2cn(Cc3ccccc3)c(=O)c3ccccc23)cc1OC
127	CCOC(=O)C(Cc1cnc2ccc(OC)cc2c1)NC(=O)OC(C)(C)C (centres undefined)
156 to 157	CCOc1nn(-c2ccccn2)cc1CCCOc1cc(CCC(=O)O)n(-c2ccccc2)n1
152 to 155	CCOC(=O)CCC(=O)c1cnc2c(OC)cccc2c1NCc1ccccc1C
50	CCCCOC(=O)c1ccc2ccc(C)nc2c1O
78 to 79	COc1cc2c(cc1OCc1ccccc1)CCN(Cc1cccnc1)C2
163 to 165	COc1ccc2c(c1)CC(N(C)CCCN1CCc3cc(OC)c(OC)cc3NC1=O)CC2 (centres undefined)
129 to 130	Nc1cc(F)c(NCC(O)CO)cc1[N+](=O)[O-] (centres undefined)
152 to 158	O=C1c2ccccc2C(=O)N1CC1CCc2cccnc2O1 (centres undefined)
193 to 194	NC(=O)c1nc(-c2cccc(N)c2)cs1
140 to 142	OCC1OC(n2c(Cl)nc3cc(Br)c(Cl)cc32)C(O)C1O (centres undefined)
138 to 140	CC1(C)CC(=O)C(C(=O)Nc2cccc([N+](=O)[O-])c2)C(=O)O1 (centres undefined)
70 to 71	N#Cc1ccc(CCC(O)C2CC2)cc1 (centres undefined)

melting point [°C]	Structure (SMILES)
144 to 146	CCOC(=O)NC(=O)C(C#N)=CNNc1ccc(OC(F)F)cc1
236 to 239	NC(Cc1c[nH]c2c(Cl)cccc12)C(=O)O (centres undefined)
115	C=C(c1ccc(N(C)C)cc1)c1ccc(N(C)C)cc1
142	Cc1c(C)c(Cl)c2ccccc2c1Cl
105 to 106	CCOC(=O)C(CC(=O)OC1CC2CCC1(C)C2(C)C)(NC(=O)OCc1ccccc1)C(N)=O (centres undefined)
81 to 83	CCCCc1cn(-c2ccccc2Cl)c(=O)n1Cc1ccc(-c2ccccc2-c2nnn[nH]2)nc1
166 to 168	COCC1CN(c2ccc3cc(S(N)(=O)=O)ccc3c2)C(=O)O1 (centres undefined)
72	Nc1cc(Oc2ccccc2)ccc1[N+](=O)[O-]
158 to 160	CC(=O)NC1CCN(c2cccc(Br)n2)CC1
135 to 137	O=C(Nc1ccc(Oc2ccc(Cl)cc2)nc1)N1CCc2ccccc2CC1
188 to 190	CCOC(=O)COc1ccccc1-c1cc(C#N)c(=O)[nH]c1C
42 to 46	FC(F)Sc1ccc(-c2ccc(Cl)cc2)[nH]1
91 to 92	N[C@@H](Cc1ccc(C(F)(F)F)cc1)[C@H](O)c1ccoc1 (racemic)
110 to 112	O=C(NCC1CCN(C[C@H]2COc3ccc(Cl)cc3O2)CC1)c1ccccn1
141 to 143	COc1ccc(COc2cccnc2NC(=N)Nc2ccccc2)cc1
227	O=C1COc2ccc(-c3cnn(CC(F)(F)F)c3-c3ccc(F)cc3)cc2N1
113	Cc1ccc(Oc2ccc(C(F)(F)F)cc2Cl)cc1C(=O)O
238 to 241	COCCOc1cc2c(Nc3ccc(Sc4nccn4C)c(Cl)c3)c(C#N)cnc2cc1N1CCC(N2CCCC2)CC1

Further lines, the molecule ahead of its results:

Structure (SMILES)	melting point [°C]
CCCOc1ccccc1C1=NC(=O)C2=NC=NC2=N1	254 to 259
CCOC(=O)C(C)=CNc1ccc(OCC)c(C)n1	118 to 122
CN(C)CCCNC(=O)CCCCCCCCCCCNC(N)=NC(=O)c1nc(Cl)c(N)nc1N	82 to 84
Cc1cc(C)n(C(=O)C(C)NS(=O)(=O)c2ccc(Cl)cc2)n1 (centres undefined)	150
O=C(c1cccc2ccccc12)P1(=O)Oc2ccccc2-c2ccccc21 (centres undefined)	149 to 151
COc1ccc2sc(-c3ccc(OCCN4CCCC4)cc3)cc2c1	123 to 126
CC(C)c1nc(N(C)S(C)(=O)=O)nc(-c2ccc(F)cc2)c1Br	122 to 125
Cc1nc(N)c2nc(C)n(CCCNC(=O)N3CCOCC3)c2c1C	129 to 130
COC(=O)c1nc(-c2ccc(Cl)c(OC)c2F)nc(N)c1OCC(F)(F)F	123 to 125
COc1ccc(N(Cc2cnn(Cc3ccc(C(F)(F)F)cc3)c2)C(=O)C2CCCc3c(O)cccc32)cn1 (centres undefined)	199 to 200
COc1ccnc(N2CCC3(CCCN(Cc4c[nH]c5ccccc45)C3=O)CC2)n1	190 to 191
C#CCCCCn1ncc2c(N)c(C(=O)OCC)c(C)nc21	63 to 65
O=C(O)c1ccc(N2C(=O)c3cccc([N+](=O)[O-])c3C2=O)cc1	> 300
O=C1C[C@@H](O)C[C@H](CCc2c(Cl)cc(Cl)c3ccc(Cl)cc23)O1 (relative stereo)	111 to 115
NCCCCCNc1ncc2ncnc(Nc3ccc(F)c(Cl)c3)c2n1	153 to 155
O=C(O)CCc1ccc(SCCC(c2ccccc2)(c2ccccc2)c2ccccc2)cc1	51 to 53
Cc1ccc(NS(=O)(=O)c2cc(S(=O)(=O)Nc3ccc(C)cc3C)c3cc(O)ccc3c2)c(C)c1	116 to 118
CNc1nccc(-c2cc(NCCCNCCCOC)c3cc(OC)ccc3c2)n1	130 to 132
COc1ccc2c(c1)C(=O)N(c1ccc(C(C)CO)cc1)C2 (centres undefined)	135 to 138
O=C(NCCCCCn1cncn1)c1ccc(Cl)s1	79 to 81
COCC1OC(n2cnc3c(NCc4cccc(I)c4)nc(Cl)nc32)C(O)C1O (centres undefined)	84 to 86

Structure (SMILES)	melting point [°C]
CCOC(=O)c1cc(OC)c(OC)c(OC)c1-c1c(C(=O)OCC)cc(OC)c2c1OCO2	95 to 96.5
O=C(O)c1ccc(OCCNC(=O)C2Cc3ccccc3N2S(=O)(=O)c2ccc(-c3ccc(F)cc3)cc2)cc1 (centres undefined)	108
CCOC(=O)CCCNC1N=C(c2ccccc2Cl)c2c(cn(C)c2C)N(C)C1=O (centres undefined)	105 to 107
CN(C)CC#CCN1CCNC1=O	83 to 87
CNCC(=O)N1c2ccccc2N(C)S(=O)(=O)c2ccccc21	135 to 137
Cc1c(Cl)ccc([N+](=O)[O-])c1C#N	97 to 98
C1CSC(SSCCSSC2=NCCS2)=N1	102
O=C(Nc1ccc(-n2cccn2)c(F)c1)OCc1ccccc1	82 to 83
NC(=O)N(CCCOc1ccc(C(=O)O)cc1)c1ccc(Cl)cc1	172 to 174
CN(C)CCNC(=O)c1ccccc1-c1nnc(CSCCOc2ccccc2)o1	80 to 85
CCOC(=O)c1cn(-c2cnnn2C)c2nc(Cl)c(F)cc2c1=O	251
CO/N=C1\CCCC[C@@H]1NC(=O)c1ncc(O[C@@H](C)C(F)(F)F)c(-c2ccc(Cl)cc2)n1	180 to 182
N#Cc1c(C(F)(F)F)ccc(Cl)c1F	43 to 44
COCn1cc(C(=O)c2ccccc2)c(-c2cccc(Cl)c2)n1	106 to 108
O=C1CCCCC1c1ccc(F)cc1 (centres undefined)	56 to 59
COc1ccc(-n2nc(Sc3ccc([N+](=O)[O-])cc3)c(C)c(C#N)c2=O)cc1	258 to 260
Brc1ccc(-c2ccc3nncn3n2)cc1	209 to 211
O=C1N(C(c2ccccc2)c2ccccc2)c2cc(F)ccc2C1(O)c1cc2c(cc1O)OCC2 (centres undefined)	147 to 149
CN1Cc2c(-c3noc(CCl)n3)ncn2-c2cccc(Cl)c2C1=O	208 to 210
O=C(c1ccc(Cl)c(Cl)c1)N1CCCC(c2cccs2)=N1	124 to 125
O=c1cc(-c2ccccc2)oc2cc(OCC(O)CCCOC3CCCCO3)ccc12 (centres undefined)	110 to 112

Structure (SMILES)	melting point [°C]
Cc1cc(C(O)(COc2ccc(Cl)cc2)C(F)(F)F)ccc1NC(=O)c1cccc(I)c1C(=O)NC(C)C (centres undefined)	90 to 95
N#Cc1c(-c2ccc(Cl)cc2)[nH]c(C(F)(F)F)c1Sc1ccc(Cl)c(Cl)c1	94 to 97
O=C(COC(F)(F)F)Nc1ccccc1	64 to 66.5
CC(C)(C)OC(=O)NCCc1cccc(C#N)n1	79.1 to 80.3
COc1cccc(CNC(=O)c2nc3ccc(-c4nnn[nH]4)cc3c(=O)[nH]2)c1	258 to 260
CCN1CCN(c2cccc3c2C[C@H](NC(C)=O)CC3)CC1	142 to 143
O=C(NCC(=O)N(c1ccccc1)c1ccccc1)c1ccc2ccccc2c1	205
CCOC(=O)Cc1ccc(-c2nc(COc3cc(C(=O)OC)on3)c(C)o2)cc1	124 to 126
COc1ccc(C(=O)Nc2ccccc2)cc1NS(=O)(=O)c1cccc2ccccc12	212 to 213
CN1CCN(C2=Nc3cc(Cl)cc4c3N(CC4)c3ccccc32)CC1	199 to 200
Cc1ccc(Nc2ncc(C#N)c(-c3ccc(C(C)(C)N)cc3)n2)cc1F	209
CC(C)(C)OC(=O)NCCc1ccc([N+](=O)[O-])cc1	94 to 95
CCOC(=O)c1ccc(O)nc1	143 to 144
NC(=O)c1cc(C(F)(F)F)cc(F)c1F	128 to 130
COC(=O)CCc1cnoc1-c1ccc(-c2ccccc2)cc1	103 to 104
CCN(CC)c1ccc(/C=C/C(=O)CC(=O)/C=C/c2ccc3cc[nH]c3c2)c(OCc2ccccn2)c1	92 to 96
O=S(=O)(Cl)c1cc(Cl)c(Cl)c(S(=O)(=O)Cl)c1	114 to 115
COc1ccc(-c2ccc(N3C[C@H](CNC(C)=O)OC3=O)cc2F)ccc1=O	227 to 228
Cc1cc(SCc2ccc(-c3ccc(C(F)(F)F)cc3)cc2)ccc1OCC(=O)O	140 to 141
O=C(O)Cc1cccc(C(=O)c2ccc(OCc3ccc4ccccc4c3)cc2)c1	150 to 152

Reference: a melting point compilation (Tetko et al.; mined from patent text by program, amines drawn as free bases though some values may be those of a salt)
